Measurements from patent publication US20030204063A1, “Modified biological peptides with increased potency” (priority 2003, published 2003).

Tested on: CD1 mice
Assay: Oral Glucose Tolerance Test (OGTT)
Assay type: in vivo
Details: for integrated increase in blood glucose (area under the curve of delta blood glucose) over 120 min following glucose administration: fasted female CD1 mice, mean±SEM
Description: Oral Glucose Tolerance Test (OGTT)
Six-week old female CD1 mice (Charles River) were fasted for at least 16 hours. Mice were given 1.5 mg of glucose per gram of body weight orally in water through a gastric savage tube at t=o min and blood was collected from a tail vein at t=0, 10, 20, 30, 60, 90 and 120 min for measurement of blood glucose using a glucose meter (Lifescan). Peptides or vehicle were injected subcutaneously 5 min prior to the glucose administration. Data were expressed as the area under the curve, calculated from the change (delta) in blood glucose for each time, using the trapezoidal rule. Therefore, the data represent the integrated increase in blood glucose over a 120 min period following glucose administration. Data presented are the mean±SEM of 4 to 11 animals per group.
All peptides, including wild-type GLP-1 (7-37), were tested in the OGTT test at 3 different concentrations: 1, 5 and 10 ug per mouse. In a first set of experiments (study A), peptide 3 was tested in comparison with vehicle and hGLP-1(7-37). In a second set of experiments (study B), peptides 1 and 2 were tested in comparison with vehicle and hGLP-1 (7-37).

[1] = studies A and B, 1, 5 and 10 ug per mouse subcutaneously

Substance: ((+,−)-cis-2-Ethylcyclopropylacetic acid-His^7)-hGLP-1 (7-37) [peptide 2]
- integrated increase in blood glucose (area under the curve of delta blood glucose) over 120 min following glucose administration (study B, 5 ug per mouse subcutaneously 5 min prior to oral glucose 1.5 mg/g): −17±67 mM×120 min
- integrated increase in blood glucose (area under the curve of delta blood glucose) over 120 min following glucose administration (study B, 10 ug per mouse subcutaneously 5 min prior to oral glucose 1.5 mg/g): 61±64 mM×120 min
- biological potency compared with wild type GLP-1 (7-37) (in words) (study B, OGTT, subcutaneous): marked increased biological potency

Substance: hGLP(7-37) (HAEGTFTSDVSSYLEGQAAKEFIAWLVKGRG; Glucagon-like peptide 1; UniProt P01275 98-128, looked up, fragment) [wt GLP-1, wild type human glucagon-like peptide 1 (7-37), comparator in the OGTT, reference compound]
- ability to completely suppress the glucose response (in words) [1]: not able to completely suppress the glucose response at any dose
- effect on the glucose response (in words) [1]: dose-related decrease in the glucose response

Substance: (Hexanoyl-trans-3-His^7)-hGLP-1 (7-37) [peptide 3]
- integrated increase in blood glucose (area under the curve of delta blood glucose) over 120 min following glucose administration (study A, 10 ug per mouse subcutaneously 5 min prior to oral glucose 1.5 mg/g): 9±26 mM×120 min
